In US9850225B2, “Compounds useful as immunomodulators” (BRISTOL-MYERS SQUIBB COMPANY, priority 2014, dated 2017):

biological target: PD-1/PD-L1 interaction (PD-1-Ig / PD-L1-His) (Homo sapiens (Human), UniProt Q9NZQ7); assay: PD-1/PD-L1 Homogenous Time-Resolved Fluorescence (HTRF) binding assay; conditions: PD-1/PD-L1 HTRF binding assay; value given as range class; read-out: Range or IC50
Procedure, shortened: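 HTRF detection used 1 nM europium-cryptate anti-Ig and 20 nM APC anti-His. Compounds first saw 10 nM PD-L1-His for 15 min, and 20 nM PD-1-Ig was then added for another 15 min. Buffer was dPBS plus 0.1% BSA and 0.05% Tween-20. All concentrations are final.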

Sequence of PD-1/PD-L1 interaction (PD-1-Ig / PD-L1-His) (Q9NZQ7 other isoform, or with tags, fused parts or gaps): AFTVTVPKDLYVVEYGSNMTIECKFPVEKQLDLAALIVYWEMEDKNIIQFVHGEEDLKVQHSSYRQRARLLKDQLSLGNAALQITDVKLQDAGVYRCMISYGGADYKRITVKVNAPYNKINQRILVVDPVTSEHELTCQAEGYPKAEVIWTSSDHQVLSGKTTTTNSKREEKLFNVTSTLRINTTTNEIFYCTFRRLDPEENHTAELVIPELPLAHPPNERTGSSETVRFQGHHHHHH

SMILES	IC50
Cc1c(COc2cc(OCc3cccc(C#N)c3)c(CN[C@@H](CC(=O)O)C(=O)O)cc2Cl)cccc1-c1ccc2c(c1)OCCO2 [Example 1158, (S)-2-((5-chloro-2-((3-cyanobenzyl)oxy)-4-((3-(2,3-dihydrobenzo[b][1,4]dioxin-6-yl)-2-methylbenzyl)oxy)benzyl)amino)succinic acid]	0.6 to 10 nM
CSC[C@H](NCc1cc(Cl)c(OCc2cccc(-c3ccc4c(c3)OCCO4)c2C)cc1OCc1cccc(C#N)c1)C(=O)O [Example 1160, (R)-2-((5-chloro-2-((3-cyanobenzyl)oxy)-4-((3-(2,3-dihydrobenzo[b][1,4]dioxin-6-yl)-2-methylbenzyl)oxy)benzyl)amino)-3-(methylthio)propanoic acid]	10 to 100 nM
Cc1c(COc2cc(OCc3cccc(C#N)c3)c(CNC(C(=O)O)C(F)(F)F)cc2Cl)cccc1-c1ccc2c(c1)OCCO2 (stereo not shown) [Example 1162, 2-((5-chloro-2-((3-cyanobenzyl)oxy)-4-((3-(2,3-dihydrobenzo[b][1,4]dioxin-6-yl)-2-methylbenzyl)oxy)benzyl)amino)-3,3,3-trifluoropropanoic acid]	100 to 20000 nM
Cc1c(COc2cc(OCc3cccc(C#N)c3)c(CNC(Cc3c[nH]cn3)C(=O)O)cc2Cl)cccc1-c1ccc2c(c1)OCCO2 (stereo not shown) [Example 1164, 2-((5-chloro-2-((3-cyanobenzyl)oxy)-4-((3-(2,3-dihydrobenzo[b][1,4]dioxin-6-yl)-2-methylbenzyl)oxy)benzyl)amino)-3-(1H-imidazol-4-yl)propanoic acid]	0.6 to 10 nM
Cc1c(COc2cc(OCc3cccc(C#N)c3)c(CN3CCCC3C(=O)O)cc2Cl)cccc1-c1ccc2c(c1)OCCO2 (stereo not shown) [Example 1165, 1-(5-chloro-2-((3-cyanobenzyl)oxy)-4-((3-(2,3-dihydrobenzo[b][1,4]dioxin-6-yl)-2-methylbenzyl)oxy)benzyl)pyrrolidine-2-carboxylic acid]	0.6 to 10 nM
Cc1c(COc2cc(OCc3cccc(C#N)c3)c(CNC(Cc3c[nH]c4ccc(O)cc34)C(=O)O)cc2Cl)cccc1-c1ccc2c(c1)OCCO2 (stereo not shown) [Example 1167, 2-((5-chloro-2-((3-cyanobenzyl)oxy)-4-((3-(2,3-dihydrobenzo[b][1,4]dioxin-6-yl)-2-methylbenzyl)oxy)benzyl)amino)-3-(5-hydroxy-1H-indol-3-yl)propanoic acid]	10 to 100 nM
Cc1c(COc2cc(OCc3cccc(C#N)c3)c(CNCCO)cc2Cl)cccc1-c1ccc2c(c1)OCCO2 [Example 1170, 3-((4-chloro-5-((3-(2,3-dihydrobenzo[b][1,4]dioxin-6-yl)-2-methylbenzyl)oxy)-2-(((2-hydroxyethyl)amino)methyl)phenoxy)methyl)benzonitrile]	0.6 to 10 nM
Cc1c(COc2cc(OCc3cccc(C#N)c3)c(CNC(CN(C)C)C(=O)O)cc2Cl)cccc1-c1ccc2c(c1)OCCO2 (stereo not shown) [Example 1172, 2-((5-chloro-2-((3-cyanobenzyl)oxy)-4-((3-(2,3-dihydrobenzo[b][1,4]dioxin-6-yl)-2-methylbenzyl)oxy)benzyl)amino)-3-(dimethylamino)propanoic acid]	0.6 to 10 nM
Cc1c(COc2cc(OCc3cccc(C#N)c3)c(CN[C@@H](CCCCN(C)C)C(=O)O)cc2Cl)cccc1-c1ccc2c(c1)OCCO2 [Example 1173, (S)-2-((5-chloro-2-((3-cyanobenzyl)oxy)-4-((3-(2,3-dihydrobenzo[b][1,4]dioxin-6-yl)-2-methylbenzyl)oxy)benzyl)amino)-6-(dimethylamino)hexanoic acid]	0.6 to 10 nM
Cc1c(COc2cc(OCc3cccc(C#N)c3)c(CN[C@@H](CC[S+](C)[O-])C(=O)O)cc2Cl)cccc1-c1ccc2c(c1)OCCO2 (stereo partly drawn) [Example 1174, (2S)-2-((5-chloro-2-((3-cyanobenzyl)oxy)-4-((3-(2,3-dihydrobenzo[b][1,4]dioxin-6-yl)-2-methylbenzyl)oxy)benzyl)amino)-4-(methylsulfinyl)butanoic acid]	0.6 to 10 nM
Cc1c(COc2cc(OCc3cccc(C#N)c3)c(CN[C@H](CC(=O)O)C(=O)O)cc2Cl)cccc1-c1ccc2c(c1)OCCO2 [Example 1175, (R)-2-((5-chloro-2-((3-cyanobenzyl)oxy)-4-((3-(2,3-dihydrobenzo[b][1,4]dioxin-6-yl)-2-methylbenzyl)oxy)benzyl)amino)succinic acid]	10 to 100 nM
Cc1c(COc2cc(OCc3cccc(C#N)c3)c(CN[C@@H](Cc3cn(C)cn3)C(=O)O)cc2Cl)cccc1-c1ccc2c(c1)OCCO2 [Example 1176, (S)-2-((5-chloro-2-((3-cyanobenzyl)oxy)-4-((3-(2,3-dihydrobenzo[b][1,4]dioxin-6-yl)-2-methylbenzyl)oxy)benzyl)amino)-3-(1-methyl-1H-imidazol-4-yl)propanoic acid]	0.6 to 10 nM

Second part, the molecule after the results:

IC50	SMILES
0.6 to 10 nM	Cc1c(COc2cc(OCc3cccc(C#N)c3)c(CN[C@H](CO)C(=O)O)cc2Cl)cccc1-c1ccc2c(c1)OCCO2 [Example 1157, (R)-2-((5-chloro-2-((3-cyanobenzyl)oxy)-4-((3-(2,3-dihydrobenzo[b][1,4]dioxin-6-yl)-2-methylbenzyl)oxy)benzyl)amino)-3-hydroxypropanoic acid]
10 to 100 nM	Cc1c(COc2cc(OCc3cccc(C#N)c3)c(CNC(Cc3cccc(O)c3)C(=O)O)cc2Cl)cccc1-c1ccc2c(c1)OCCO2 (stereo not shown) [Example 1159, 2-((5-chloro-2-((3-cyanobenzyl)oxy)-4-((3-(2,3-dihydrobenzo[b][1,4]dioxin-6-yl)-2-methylbenzyl)oxy)benzyl)amino)-3-(3-hydroxyphenyl)propanoic acid]
10 to 100 nM	Cc1c(COc2cc(OCc3cccc(C#N)c3)c(CN[C@@H](C(=O)O)c3ccc(O)cc3)cc2Cl)cccc1-c1ccc2c(c1)OCCO2 [Example 1161, (R)-2-((5-chloro-2-((3-cyanobenzyl)oxy)-4-((3-(2,3-dihydrobenzo[b][1,4]dioxin-6-yl)-2-methylbenzyl)oxy)benzyl)amino)-2-(4-hydroxyphenyl)acetic acid]
0.6 to 10 nM	Cc1c(COc2cc(OCc3cccc(C#N)c3)c(CN[C@@H](C(=O)O)[C@@H](C)O)cc2Cl)cccc1-c1ccc2c(c1)OCCO2 [Example 1163, (2R,3R)-2-((5-chloro-2-((3-cyanobenzyl)oxy)-4-((3-(2,3-dihydrobenzo[b][1,4]dioxin-6-yl)-2-methylbenzyl)oxy)benzyl)amino)-3-hydroxybutanoic acid]
100 to 20000 nM	Cc1c(COc2cc(OCc3cccc(C#N)c3)c(CNC(Cc3cn(C)c4ccccc34)C(=O)O)cc2Cl)cccc1-c1ccc2c(c1)OCCO2 (stereo not shown) [Example 1168, 2-((5-chloro-2-((3-cyanobenzyl)oxy)-4-((3-(2,3-dihydrobenzo[b][1,4]dioxin-6-yl)-2-methylbenzyl)oxy)benzyl)amino)-3-(1-methyl-1H-indol-3-yl)propanoic acid]
0.6 to 10 nM	Cc1c(COc2cc(OCc3cccc(C#N)c3)c(CN[C@H](C)C(=O)O)cc2Cl)cccc1-c1ccc2c(c1)OCCO2 [Example 1169, (R)-2-((5-chloro-2-((3-cyanobenzyl)oxy)-4-((3-(2,3-dihydrobenzo[b][1,4]dioxin-6-yl)-2-methylbenzyl)oxy)benzyl)amino)propanoic acid]
10 to 100 nM	Cc1c(COc2cc(OCc3cccc(C#N)c3)c(CN(Cc3ccccc3)[C@@H](CO)C(=O)O)cc2Cl)cccc1-c1ccc2c(c1)OCCO2 [Example 1171, (S)-2-(benzyl(5-chloro-2-((3-cyanobenzyl)oxy)-4-((3-(2,3-dihydrobenzo[b][1,4]dioxin-6-yl)-2-methylbenzyl)oxy)benzyl)amino)-3-hydroxypropanoic acid]
